Data taken from US10258599B2, “Compounds for use in the prevention or treatment of cancer” (SEMMELWEIS UNIVERSITY, priority 2014, dated 2019).
“Also recorded” adds a separate entry of the source.

Experiments:
[1] = test system: isolated locus coerulei of rats; conditions: Knoll et al., 1999, Miklya, Knoll B, 2002; cited from earlier work
MAO-B = molecular target: T1, MAO-B (Rattus norvegicus, UniProt P19643); conditions: in vivo; cited from earlier work
T1 construct: from tissue; host or cells: brain, in vivo dosing
T1 sequence (P19643 1-520): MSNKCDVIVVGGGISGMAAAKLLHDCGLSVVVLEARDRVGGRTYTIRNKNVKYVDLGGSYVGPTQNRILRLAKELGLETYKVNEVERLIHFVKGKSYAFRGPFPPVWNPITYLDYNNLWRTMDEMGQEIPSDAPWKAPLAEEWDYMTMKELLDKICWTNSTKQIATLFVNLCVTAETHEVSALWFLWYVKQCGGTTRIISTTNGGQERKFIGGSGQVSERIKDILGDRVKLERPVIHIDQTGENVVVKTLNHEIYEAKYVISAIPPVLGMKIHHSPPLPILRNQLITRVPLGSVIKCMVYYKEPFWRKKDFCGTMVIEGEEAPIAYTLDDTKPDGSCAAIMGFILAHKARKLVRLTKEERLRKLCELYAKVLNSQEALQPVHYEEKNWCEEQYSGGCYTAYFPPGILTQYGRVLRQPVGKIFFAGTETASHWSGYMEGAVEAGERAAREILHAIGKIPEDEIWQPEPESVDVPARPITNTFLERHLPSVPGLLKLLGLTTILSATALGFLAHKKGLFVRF

isolated rat brain stem = conditions: optimal concentration for the specific enhancer effect, 3-min collection period; review Knoll, 2005; cited from earlier work
[2] = test system: male Wistar rats (Charles River); assay: Longevity study: survival of rats treated 3 times a week s.c.; type: in vivo, rat
Experimental: Experiments were carried out on male Wistar rats (Charles River) weighing 250-350 g received from the breeding colony of Semmelweis University. The animals were kept in a 12-hour light-dark cycle and under condition of controlled temperature (22±2° C.) and relative humidity (55±5%). Room temperature and relative humidity was checked daily. The rats were maintained on standard laboratory chow and tap water ad libitum. All procedures conformed to the European Convention for the protection of vertebrate animals used for experimental and other scientific purposes. The study was approved by the Animal Ethics Committee of Semmelweis University, Budapest (permission number: 1810/003/2004)
(§1) The longevity study was performed on 200 male rats received from the breeding colony of the Semmelweis University. The rats were born at the end of February of 2010. After 2-month acclimation period the rats were divided randomly into 5 even groups. The longevity study started at the beginning of May 2010. Animals were observed until their natural deaths. The data in this study represent the changes observed until Oct. 31, 2012, since in the saline-treated group the last animal died on Oct. 31, 2012. As will be shown later a few rats in the enhancer-treated groups were still alive on Nov. 1, 2012.
(§2) During the longevity study 5 rats were housed together in polycarbonate cages (height: 18 cm; wide: 42 cm; length: 44 cm) with a stainless steel on the top. Cage bedding was renewed 3 times a week (Monday, Wednesday and Friday). Bodyweight was measured once every month. The treatment started at the end of the second month of their age.
To avoid the mixing of the groups and individuals, saline-treated rats were signed blue from 1 to 40; D-treated rats were signed green from 1 to 80 (1-40: rats treated with 0.1 mg/kg and 41-80: rats treated with 0.001 mg/kg); B-treated rats were signed black from 1 to 80 (1-40: rats treated with 0.05 mg/kg and 41-80: rats treated with 0.0001 mg/kg).
(§3) Significance in the performance between the groups in the shuttle box was evaluated by multi-factor analysis of variance (ANOVA). Significance regarding the span of time from tumor manifestation until death in rats and regarding aging related changes in bodyweight treated chronically with the enhancer substances was analyzed by One-way ANOVA. Statistical analysis of survival rate and tumor manifestation was performed by the Kaplan-Meier method.

[3] = test system: mouse colon carcinoma cells (C38); assay: Mouse colon carcinoma (C38) spleen inoculation, liver metastasis; type: in vivo; conditions: 0.0001 mg/kg s.c. daily from one week before inoculation, day 23, p<0.05
Experimental: In this study 30.000 mouse colon carcinoma cells (C38) were inoculated into the spleen of C57BI/6 mice and macroscopic liver metastasis observed on day 23 after inoculation. In the experiment a group of mice pretreated daily subcutaneously for one week with 0.0001 mg/kg BPAP prior to the inoculation of 30.000 cells/animal and further treated until the end of the experiment (23rd day) whereas the control animals have not received BPAP.

fibromyxosarcoma = assay: Longevity study: manifestation of subcutaneous fibromyxosarcoma (TMS effect); type: in vivo, rat; conditions: for tumor manifestation suppressing (TMS) effect versus saline: Kaplan-Meier, P<0.001
Experimental: as §1, §2
We carefully observed the appearance of the subcutaneous tumor and followed the development of the tumor until death. Histological analysis was performed post mortem on several rats taken from each group as examples.
The subcutaneous tumors developed in the rats were measured by the two largest diameters. After sacrificing the animals, the tumors were removed, photographs were taken. Tissues were fixed immediately after removal in 10% neutral formalin (in PBS, pH7.0) for 24 hours at room temperature, dehydrated and embedded in paraffin. 3-4 micrometer thick sections were cut and stained by hematoxylin and eosin (HE) as a routine.
as §3

[4] = 0.0001 mg/kg, N=40, listed as BPAP

CCCN[C@H](CCC)Cc1cc2ccccc2o1 [(−)-BPAP, (2R)-1-(1-benzofuran-2-yl)-N-propylpentane-2-amine]
concentration range of the specific enhancer effect on noradrenergic neurons [1]: femto/picomolar
MAO-B inhibitory potency (MAO-B): devoid of MAO-B inhibitory potency
released amount of labeled transmitter ([3H]-norepinephrine, [3H]-dopamine or [3H]-serotonin) (isolated rat brain stem): significantly higher
lifespan compared with saline-treated peers ([2]; 0.0001 mg/kg 3 times a week, P<0.05): lived significantly longer
month of age in which the first animal died ([2]; 0.0001 mg/kg s.c. 3 times a week, N=40): 16 month
rats remained alive to the end of the 32nd month [2, 4]: one and One
month of age in which the first animal died ([2]; 0.05 mg/kg s.c. 3 times a week, N=40): 14 month
lifespan compared with saline-treated peers ([2]; both doses of the longevity study (FIGS. 5-8)): significantly longer
number of macroscopic liver metastasis [3]: 2 tumors/liver
tumor manifestation suppressing (TMS) effect versus saline (fibromyxosarcoma; 0.0001 mg/kg): significantly decreased; also recorded: more potent in suppressing tumor manifestation than 0.1 mg/kg (−)-deprenyl
tumor manifestation suppressing (TMS) effect versus saline (fibromyxosarcoma; 0.0001 mg/kg, listed as BPAP): highly efficient; also recorded: suppressed the manifestation of the fibromyxosarcoma significantly
month of age in which the first animal manifested the tumor (fibromyxosarcoma; 0.0001 mg/kg, N=40): 20 month
rats in the group manifested the tumor to the end of the 32nd month (fibromyxosarcoma; 0.0001 mg/kg, N=40): 8 rats
rats manifested the fibromyxosarcoma when the group completed the 30th month of life (fibromyxosarcoma; 0.0001 mg/kg, N=40): 8 rats
month of age in which the first animal manifested the tumor (fibromyxosarcoma; [4]): 25 month
tumor manifestation suppressing (TMS) effect versus saline (fibromyxosarcoma; 0.05 mg/kg): significantly decreased
tumor manifestation suppressing (TMS) effect versus saline (fibromyxosarcoma; 0.05 mg/kg, listed as BPAP): suppressed the manifestation of the fibromyxosarcoma significantly
month of age in which the first animal manifested the tumor (fibromyxosarcoma; 0.05 mg/kg, N=40): 13 month
rats in the group manifested the tumor to the end of the 32nd month (fibromyxosarcoma; 0.05 mg/kg, N=40): 7 rats
rats manifested the tumor when the group completed the 30th month of life (fibromyxosarcoma; 0.05 mg/kg, N=40): 7 rats
span of time from tumor manifestation until death (fibromyxosarcoma; chronic treatment, versus saline (FIG. 13), One-way ANOVA): no significant difference
